Results published in ChEMBL document CHEMBL5380866, “Discovery of Selective P2Y6R Antagonists with High Affinity and In Vivo Efficacy for Inflammatory Disease Therapy” (J Med Chem, 2023).

What was measured:
P2Y purinoceptor 6 = P2Y purinoceptor 6 (Homo sapiens, UniProt Q15077); test: Antagonist activity at human P2Y6R expressed in HEK293 cells assessed as inhibition of UDP-induced IP3 production preincubated for 0.5 hrs followed by UDP stimulation and measured after 12 hrs by ELISA analysis; format: functional, cell-based
Chain of P2Y purinoceptor 6 (Q15077 whole entry): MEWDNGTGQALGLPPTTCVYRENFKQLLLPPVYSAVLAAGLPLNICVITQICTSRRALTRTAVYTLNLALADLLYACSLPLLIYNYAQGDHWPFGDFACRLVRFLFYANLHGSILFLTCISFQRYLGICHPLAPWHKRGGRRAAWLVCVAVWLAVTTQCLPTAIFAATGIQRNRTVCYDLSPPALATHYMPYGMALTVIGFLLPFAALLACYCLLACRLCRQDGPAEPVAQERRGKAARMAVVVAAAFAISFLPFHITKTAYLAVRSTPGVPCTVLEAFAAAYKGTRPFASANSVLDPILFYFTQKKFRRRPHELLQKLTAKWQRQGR

P2Y purinoceptor 14 = target: T1, P2Y purinoceptor 14 (Homo sapiens, UniProt Q15391); test: Antagonist activity at human P2Y14R expressed in HEK293 cells assessed as inhibition of UDPG-induced cAMP production preincubated for 0.5 hrs followed by UDPG stimulation by cAMP-glo analysis; format: functional, cell-based
T1 sequence (Q15391 whole entry): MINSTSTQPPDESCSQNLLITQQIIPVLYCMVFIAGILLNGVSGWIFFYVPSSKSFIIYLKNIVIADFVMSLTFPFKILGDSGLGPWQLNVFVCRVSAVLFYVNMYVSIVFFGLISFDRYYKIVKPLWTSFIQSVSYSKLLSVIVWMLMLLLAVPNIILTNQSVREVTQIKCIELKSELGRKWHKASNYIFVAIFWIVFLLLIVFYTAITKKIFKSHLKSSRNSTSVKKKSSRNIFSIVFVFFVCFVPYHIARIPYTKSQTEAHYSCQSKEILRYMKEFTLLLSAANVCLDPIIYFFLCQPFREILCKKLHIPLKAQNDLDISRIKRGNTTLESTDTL

| IC50 (P2Y purinoceptor 6) [nM] | IC50 (P2Y purinoceptor 14) [nM] | SMILES |
| --- | --- | --- |
| 256 | – | Cc1ccc2oc(-c3cc(-c4ccc[nH]4)n(C(C)(C)C)n3)nc2c1 |
| – | 5210 | O=C(O)c1cc(-c2ccccc2C2CCNCC2)c2ccc(-c3ccc(C(F)(F)F)cc3)cc2c1 |
| 93.5 | – | CC(C)(C)n1nc(-c2nc3c(Cl)cccc3[nH]2)cc1-c1ccco1 |
| 94.2 | – | Cc1cccc2oc(-c3cc(-c4ccco4)n(C(C)(C)C)n3)nc12 |
| 314 | – | CC(C)(C)n1nc(-c2nc3ccccc3s2)cc1-c1ccccc1 |

Second part, the molecule before the results:

| SMILES | IC50 (P2Y purinoceptor 6) [nM] | IC50 (P2Y purinoceptor 14) [nM] |
| --- | --- | --- |
| CC(C)(C)n1nc(-c2nc3ccccc3[nH]2)cc1-c1ccccc1 | 49.2 | – |
| CC(C)(C)n1nc(-c2nc3cc([N+](=O)[O-])ccc3[nH]2)cc1-c1ccco1 | 12.6 | – |
| S=C=Nc1cccc(NC(=S)NCCCCNC(=S)Nc2cccc(N=C=S)c2)c1 | 27.5 | – |
| Cc1ccc2nc(-c3cc(-c4ccco4)n(C(C)(C)C)n3)oc2c1 | 72.9 | – |
| CC(C)(C)n1nc(-c2nc3cc(C(F)(F)F)ccc3[nH]2)cc1-c1ccco1 | 15.2 | – |
| CC(C)(C)n1nc(-c2nc3cc(F)ccc3[nH]2)cc1-c1ccco1 | 64.1 | – |
| Cc1ccc2[nH]c(-c3cc(-c4ccccc4)n(C(C)(C)C)n3)nc2c1 | 77.8 | – |
| Cc1ccc2oc(-c3cc(-c4ccco4)n(C(C)(C)C)n3)nc2c1 | 202 | – |
